In patent EP0466944A1, “4H-3,1-BENZOXAZIN-4-ONE COMPOUND AND ELASTASE INHIBITOR COMPOSITION CONTAINING THE SAME” (TEIJIN LIMITED, priority 1990, dated 1991):

System: human purulent sputum elastase
Experiment: Inhibitory effect on pulmonary hemorrhage in elastase-given hamsters (hemoglobin in bronchoalveolar lavage fluid)
Format: in vivo, Syrian Golden Hamsters
Settings: 1 mg/kg through respiratory tract 30 minutes before elastase (1 mg/kg), lavage three hours after elastase
Description: The efficacy of the compounds of the invention in vivo can be evaluated by the following procedures. In other words, a certain dose of a solution or dispersion of the compound of the invention is given through the respiratory tract, then human purulent sputum elastase is given through the respiratory tract after a certain time. The bronchoalveolar lavage were performed at a definite time after the elastase treatment and the hemoglobin is determined in the bronchoalveolar lavage fluids. The pulmonary hemorrhage is compared with that when a solution containing no compound of the present invention is given to measure the hemorrhage-inhibitory effect of the compounds of the present invention (Bonney et al., J. Cellular Biochemistry, 39, 47 - 53, (1989)).
The compounds according to the invention listed in Table 3 were dissolved or dispersed in 0.01 M phosphate-buffered physiological saline solution (pH 7.5), given to Syrian Golden Hamsters (body weight: about 100 g) 1 mg/kg through respiratory tract, then 30 minutes later, human purulent sputum elastase was given (1 mg/kg) through respiratory tract. Three hours after elastase administration, the animals were sacrificed by bleeding to open their chests and the bronchoalveolar lavage was performed with physiological saline solution. The hemoglobin in the lavage fluid was determined by the cyanmethemoglobin method. […]

## Cc1cc(NC(=O)C(Cc2ccccc2)NC(=O)OCc2ccccc2)cc2nc(NC(C)C)oc(=O)c12 (stereo not shown) [Comparative example 1]
  inhibition rate of pulmonary hemorrhage: weak
